Experiments:
[1] = system: Bel-7402 human hepatocarcinoma cell; experiment: Preliminary anti-tumor screening in vitro, SRB method; type: cell-based; design: key to Test results: +++: inhibition rates at three doses are greater than 50%; ++: inhibition rates at two doses are greater than 50%; +: inhibition rate at one dose is greater than 50%; details: Bel-7402, SRB; for Test results: number of doses with inhibition > 50%; for inhibition at 0.05 µM / inhibition at 0.5 µM / inhibition at 5 µM: Homo sapiens, read-out: Inhibition rate %
Summary of the method: (§1)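 In vitro cytotoxicity by routine methods: MTT read-out for HL-60 cells, SRB read-out for BGC-823, Bel-7402 and KB cells.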

[2] = system: KB human nasopharyngeal carcinoma cell; experiment: as above; type: cell-based; design: key to Test results: +++: inhibition rates at three doses are greater than 50%; ++: inhibition rates at two doses are greater than 50%; +: inhibition rate at one dose is greater than 50%; details: for inhibition at 0.05 µM / inhibition at 0.5 µM / inhibition at 5 µM: Homo sapiens, read-out: Inhibition rate %; for Test results: number of doses with inhibition > 50%
Summary of the method: as §1

[3] = target: T1, 20S proteasome extracted from rat liver, peptidyl-glutamyl-peptide-hydrolyzing (PGPH) enzyme activity (Rattus norvegicus, UniProt P28073+Q9JHW0); experiment: Proteasome inhibition, PGPH activity, fluorescent peptide Z-leu-leu-Glu-βNA; type: biochemical; details: rat liver 20S proteasome, 37° C., 1 h
T1 construct: 20S proteasome extracted from rat liver; from tissue; host or cells: rat liver
Summary of the method: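 Rat liver 20S proteasome (1 μg) incubated 1 h at 37 °C with compounds, 50 μM fluorogenic peptide and 20 mM Tris-HCl. AMC release read at 380/440 nm and βNA release at 335/410 nm. Inhibition rate calculated against a 0.1% DMSO solvent control.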

[4] = system: HL-60, BXPC-3, U266 and BGC-823 cells; experiment: In vitro anti-tumor activity (IC50), summary over the four tumor cell lines; type: cell-based
Source text: According to the results of aforementioned preliminary anti-tumor activities screening tests, those compounds which have better anti-tumor activities were selected to measure their IC50 values on four types of tumor cell lines: HL-60 (promyelocytic leukemia cell strain), BXPC-3 (human pancreatic cancer cell strain), U266 (multiple myeloma cell strain) and BGC-823 (human gastric carcinoma cell strain). HL-60, BXPC-3 and U266 were obtained from the American Type Culture Collection (Manassas, Va.), and BGC-823 (human gastric carcinoma cell strain) was obtained from China Pharmaceutical University.
Test methods: HL-60 cells were cultured in IMDM medium containing 20% fetal bovine serum at 37° C. in 5% CO2; BGC-823 cells and BXPC-3 cells were cultured in RPMI1640 medium containing 10% fetal bovine serum at 37° C. in 5% CO2; U266 cells were cultured in RPMI1640 medium containing 15% fetal bovine serum at 37° C. in 5% CO2.
The cell growth was measured by the standard MTT method. […] The precipitates were dissolved in 100 μL of DMSO, and absorbance was read with an Infinite M200 (Tecan, Austria) microplate reader at 540 nm.
The result was expressed as IC50 value, which is the average value of three independent determinations.

In the case of `CC(C)C[C@H](NC(=O)[C@H](Cc1ccc2ccccc2c1)NC(=O)[C@H](CC(C)C)NC(=O)c1cnccn1)B(O)O` [Compound 6f, N-pyrazineformyl-L-leucyl-L-naphthylalanyl-L-leucine Boronic Acid], the melting point is reported as 157 to 159 °C, the Test results [1] is reported as “++” and the inhibition at 0.05 µM [1] is reported as 39.4%. It also gave an inhibition at 0.5 µM [1] of 90.6%, an inhibition at 5 µM [1] of 93.7% and an inhibition at 0.05 µM [2] of 32.1%. The inhibition at 0.5 µM [2] was 95.7%, the inhibition at 5 µM [2] was 97.8% and the Test results [2] was “++”. For the same compound, the IC50 [3] was 3.63 ± 1.67 nM and the “Inhibition of growth of three types of cells, compared with PS341” value [4] was “better than those of PS341”.
In the case of `CC(C)C[C@H](NC(=O)[C@H](Cc1ccc2ccccc2c1)NC(=O)[C@H](Cc1ccccc1)NC(=O)c1cnccn1)B(O)O` [Compound 6g, N-pyrazineformyl-L-phenylalanyl-L-naphthylalanyl-L-leucine Boronic Acid], the Test results [1] is reported as “++”, the inhibition at 0.05 µM [1] is reported as 37.9% and the inhibition at 0.5 µM [1] is reported as 72.2%. The inhibition at 5 µM [1] was 93.4%, the inhibition at 0.05 µM [2] was 59.4% and the inhibition at 0.5 µM [2] was 96%. For the same compound, the inhibition at 5 µM [2] was 96.7%, the Test results [2] was “+++” and the IC50 [3] was 3.8 ± 0.983 nM.

Source: patent publication US9421237B2, “Tripeptide boronic acid or boronic ester, preparative method and use thereof” (PEKING UNIVERSITY, priority 2009, dated 2016)
